Test results from patent US11931329B2, “Compositions and methods for treating anxiety-related disorders” (Yamo Pharmaceuticals LLC, priority 2019, dated 2024).

Legend:
Format in all cases: in vivo, human
[1] = test system: patients diagnosed with Autistic Spectrum Disorder and one or more of Obsessive Compulsive Disorder and Attention Deficit/Hyperactivity Disorder; assay: Double blinded, placebo controlled dose ranging study of L1-79 in autism: obsessive-compulsive symptoms (case studies)
Method: (§1) Study Title: A Double Blinded, Randomized, Placebo Controlled, Dose Ranging Study for the use of L1-79 in the Treatment of Autism
(§2) Study Design: Blinded, randomized, 4-arm, 4-week treatment period. Treatment arms consist of α-methyl-DL-tyrosine (i.e., L1-79) in doses of 100 mg, or 200 mg, or placebo tid.
(§3) Sample Size:N=30; randomized and 10 open label to 4 groups:
(§4) Study Population: Male subjects between the ages of 13 and 21 years of age, diagnosed with autism who that meet the entry criteria and who are able to complete standardized measures allowing them to participate in this study.
(§5) Major Inclusion Criteria: Males between 13 and 21 years of age, signed informed consent, normal clinical laboratory values, DSM-5 compliant diagnosis of autism spectrum disorder, confirmed by the Autistic Diagnosis Interview Review (ADIR), and by the Autism Diagnosis Observation Schedule (ADOS) score consistent with a diagnosis of autism. No more than one concomitant medication, stable concomitant medications for at least 2 weeks prior to enrollment and no planned changes in psychosocial interventions during the trial.
(§6) Major Exclusion Criteria: Any co-morbidities, including Fragile-X syndrome, epilepsy, Retts syndrome, ADHD, or other disease or syndrome aside from autism that requires treatment. Any other psychiatric disorder, or out of range lab values. DSM-5 diagnosis of schizophrenia, schizoaffective disorder, alcohol use disorder; active medical problems: unstable seizures (>2 in past month), significant physical illness;
(§7) Experimental Treatment: L1-79 at doses of 100 or 200 mg three times daily for 4 weeks.
(§8) Dosage and Administration: L1-79 or placebo, as randomized, were administered orally according to the regimen above.
(§9) Evaluation Schedule: Subjects were evaluated within one week prior to study accession, and weekly throughout the dosing period, and again 4 weeks after the cessation of treatment.
(§10) Study Endpoints: The primary end point was an assessment of the safety of L1-79 based upon reported adverse events and changes in baseline in physical examination parameters that included orthostatic blood pressure, clinical laboratory measures, and ECGs. Secondary endpoints will include the attending physicians assessment as quantified by the Clinical Global Impressions scale based upon changes from baseline in various psychometric tests, including the Vineland Adaptive Behavior Scale 2nd edition (VABS II, VABS) questionnaire, the Autism Diagnostic Observation Schedule (ADOS), the Aberrant Behavior Checklist-Community (ABC-C), the Spencer Anxiety Scale (SAS), the Repetitive Behavior Score-Revised (RBS-R), the Social Responsiveness Scale (SRS), as well as from their personal observations in the clinic, and from videographic information taken during ADOS testing (per this protocol) and anecdotally as provided by caregivers over the course of this study.
Obsessive-compulsive symptoms can include ritualistic and repetitive/restricted behaviors, and obsessive thinking make it difficult for the patient to complete a task or concentrate in a conversation.
All of the patients were receiving L1-79 100-200 mg three times a day. None of the patients in the OCD symptom improvement group were receiving medication for Obsessive Compulsive Disorder
Obsessive-compulsive symptoms were initially recorded at baseline, and at end of active treatment using the Repetitive Behavior Scale, the Spence Children's’ Anxiety Scale, the Social Responsiveness Scale, the Clinical Global Impression Scale and direct parent report.

[2] = test system: patients diagnosed with Autistic Spectrum Disorder and one or more of Social Anxiety Disorder and Generalized Anxiety Disorder; assay: Double blinded, placebo controlled dose ranging study of L1-79 in autism: social anxiety symptoms (case studies); conditions: for SRS/DSM-5 Social Communication scale range after treatment: after 4 weeks on L1-79
Method: as §1, §2, §3, §4, §5, §6, §7, §8, §9, §10
Social anxiety symptoms included one or more of fear associated with meeting and talking to people, avoidance of social situations that would elicit significant anxiety in the past, anxiety in anticipation of a social situation, and an inability to initiate conversation with others. The presence of the social anxiety symptoms was recorded at baseline using the Aberrant Behavior Checklist-Community, the Spence Children's Anxiety Scale, the Social Responsiveness Scale, and/or the Clinical Global Impression Scale and direct parent report.
All of the patients were receiving L1-79 100-200 mg three times a day. None of the patients in the Social Anxiety symptom improvement group were receiving medication for Social Anxiety Disorder

[3] = test system: ASD patient with obsessive thoughts and compulsive behaviors; assay: Case study demonstrating reduction of obsessions and compulsions (SUBJECT); conditions: L1-79 100-200 mg three times per day
Description: An ASD patient (SUBJECT) has a history of obsessive thoughts and compulsive behaviors that negatively impact their functioning. […]

## CC(N)(Cc1ccc(O)cc1)C(=O)O (racemic) [L1-79, α-methyl-DL-tyrosine]
[1]; ASD patients with OCD and/or ADHD, L1-79 100-200 mg three times a day
  obsessive-compulsive symptoms: reductions in obsessive-compulsive symptoms
[1]; Subject 02-002, baseline 96 (Severe), after treatment Moderate, L1-79 100-200 mg tid
  SRS/DSM-5 Repetitive Behavior and Restrictive Interests score after treatment: 73
[1]; Subject 02-003, baseline Severe, week 4, L1-79 100-200 mg tid
  SRS/DSM-5 Repetitive Behavior and Restrictive Interests range after treatment: Moderate
[1]; Subject 02-004, L1-79 100-200 mg tid
  CGI-I, Stereotypic and Restricted Interests section: Much Improved
[1]; Subject 02-007, baseline 3.0 (anxiety disordered children), 0 = normal/no OCD, L1-79 100-200 mg tid
  Spence Children's Anxiety Scale OCD score after treatment: 0
[1]; Subject 02-007, baseline Moderate, L1-79 100-200 mg tid
  SRS/DSM-5 subscale Repetitive Behaviors and Restricted Interests range after treatment: Within Normal Limits
[1]; Subject 02-012, L1-79 100-200 mg tid
  CGI-I score (OCD symptoms): Much Improved
[1]; Subject 02-012, baseline 80 (Severe), after treatment Within Normal Limits, L1-79 100-200 mg tid
  SRS/DSM-5 Repetitive Behavior and Restrictive Interests score after treatment: 46
[1]; Subject 02-16, baseline 65 (Mild), after treatment Within Normal Limits, L1-79 100-200 mg tid
  SRS/DSM-5 Repetitive Behavior and Restrictive Interests score after treatment: 46
[1]; Subject 02-16, baseline Mildly Ill, L1-79 100-200 mg tid
  CGI-Severity scale, Stereotyped Behaviors and Restricted Interests, after treatment: Normal
[1]; Subject 02-020, baseline 85 (Severe), after treatment Moderate, L1-79 100-200 mg tid
  SRS/DSM-5 Repetitive Behavior and Restrictive Interests score after treatment: 73
[1]; one patient who could talk only about their obsessive interest at baseline, after 4 weeks on active drug
  obsessive interest / preoccupation in conversation: able to have conversations about things of interest to others
[1]; one patient with self-injurious compulsive behaviors at baseline, after 3 weeks on active drug
  self-injurious compulsive behaviors: completely stopped self-injury
[1]; patients with OCD or SAD in the L1-79 autism study, 100 or 200 mg tid, 4 weeks, oral
  anxiety-related symptoms: improved anxiety-related symptoms
[2]; ASD patients with SAD and/or GAD, L1-79 100-200 mg three times a day
  social-anxiety symptoms: reductions in social-anxiety symptoms
[2]; Subject 02-002, baseline 98%, L1-79 100-200 mg tid
  ABC-C Social Withdrawal after treatment: 75%
[2]; Subject 02-002, baseline Severe
  SRS/DSM-5 Social Communication scale range after treatment: Moderate
[2]; Subject 02-002, week 4
  CGI-I, Social Interaction and Communication: Much Improved
[2]; Subject 02-007, baseline 75%, week 4 of treatment
  ABC-C Social Withdrawal after treatment: < 40%
[2]; Subject 02-009, baseline 91%, week 4 of treatment with L1-79
  ABC-C Social Withdrawal after treatment: 63%
[2]; Subject 02-012, baseline 84%, L1-79 100-200 mg tid
  ABC-C Social Withdrawal after treatment: < 40%
[2]; Subject 02-012, baseline Moderately Ill
  CGI-Severity Score after treatment: Borderline Ill
[2]; Subject 02-012, baseline Severe
  SRS/DSM-5 Social Communication scale range after treatment: Within Normal Limits
[2]; Subject 02-012, week 4
  CGI-I, Social Interaction and Communication: Much Improved
[2]; Subject 02-014, L1-79 100-200 mg tid
  CGI-I, Social Interactions and Communication area: Much Improved
[2]; Subject 02-014, baseline Markedly Ill
  CGI-Severity score, Social Interaction area, after treatment: Moderately Ill
[2]; Subject 02-016, baseline Mildly Deficient
  SRS/DSM-5 Social Communication scale range after treatment: Within Normal Limits
[2]; Subject 02-016, baseline Mildly Ill
  CGI-Severity Score, Social Interaction and Communication, after treatment: Normal
[2]; Subject 02-016, week 4
  CGI-I, Social Interaction and Communication: Much Improved
[2]; Subject 02-022, week 4 of treatment with L1-79
  CGI-I, Social Interaction and Communication: Much Improved
[3]
  compulsive behaviors/routines: could be delayed or skipped
  obsessive thoughts: significant decrease in obsessive thoughts
  rigid and inflexible thinking: decrease in rigid and inflexible thinking
